Legend:
[1] = test system: blood cancer cells (Jurkat); test: Apoptosis test (Sub G1, propidium iodide, flow cytometry); assay type: cell-based, human
Protocol: Cancer cells as used in the experiment were human lung cancer cells (NCI-H460, Korean Cell Line Bank), human breast cancer cells (MDA-MB-231, American Type Culture Collection (ATCC)), human uterine cervical cancer cells (HeLa, Korean Cell Line Bank), and blood cancer cells (Jurkat, ATCC). These cancer cells were cultured in RPMI 1640 media containing 10% FBS, penicillin, and streptomycin (GIBCO BRL). The apoptosis tests were carried out at human lung cancer cells, breast cancer cells, uterine cervical cancer cells, and blood cancer cells as follows: Phytosphingosine or a derivative thereof was dissolved in DMSO. Samples of the resultant solution of different concentration levels (1, 2, 5, 10, 15, 20 μg/ml) were prepared. According to the following treatment schedule, phytosphingosine treated cancer cells were cultured, washed with PBS (phosphate buffered saline), and fixed with 70% ethanol. The fixed cells were again washed with PBS, suspended in PBS, and 1 mg/ml of RNase was added thereto. Then, DNA was stained with 50 μg/ml of propidium iodide fluorescent dye and the change in the Sub G1 was analyzed by flow cytometry (Becton DICKINSON). The Sub G1, a marker of apoptotic cell death, means DNA distribution lower than that in the G1 phase of cell cycle. (1-1) In order to determine an anticancer effect of phytosphingosine, 5 ml of 10 μg/ml of phytosphingosine was added to respective dishes containing lung cancer cells, breast cancer cells, uterine cervical cancer cells, and blood cancer cells. (1-2) In order to examine a correlation of an anticancer effect with the phytosphingosine concentration and post-treatment culture time, each 5 ml of 2, 5, 10, and 15 μg/ml of phytosphingosine was added to respective human uterine cervical cancer cell-containing dishes and human breast cancer cell-containing dishes. In addition, each 5 ml of 5, 10, 15, and 20 μg/ml of phytosphingosine was added to respective human lung cancer cell-containing dishes, and each 5 ml of 1, 5, 10, and 20 μg/ml of phytosphingosine was added to respective human blood cancer cell-containing dishes.

Acute oral toxicity test = conditions: rat, in vivo, rats
Protocol: (§1) Royal Gist-Brocades N.V. (Netherlands) was asked to perform tests for acute oral toxicity and dermal irritation, and Ames tests of phytosphingosine and derivatives thereof.
In the acute oral toxicity test, the LD50 (the […]) value amounted to 2,000 mg/kg or more in rats.

Ames test = test: Ames test
From the text: as §1

Dermal irritation test = assay type: in vivo; conditions: rabbits
From the text: as §1

human blood cancer cells = test: Analysis of mitochondrial membrane potential and cytochrome c release; assay type: cell-based; conditions: 5 and 10 μg/ml phytosphingosine
Protocol: (§2) Human lung cancer cells and blood cancer cells were cultured under the same condition as in the apoptosis test and were treated with 10 ml of phytosphingosine (10 μg/ml of phytosphingosine for lung cancer cells, and 5 μg/ml and 10 μg/ml of phytosphingosine for blood cancer cells). Then, the analysis of mitochondrial membrane potential and western blotting was carried out. Mitochondria were stained with 30 nM of a specific DioC6(3) dye (Calbiochem) for 30 minutes and culture media were removed. Then, lung cancer cells were twice washed with PBS and the membrane potential was analyzed by flow cytometry.

[2] = test system: caspases in human lung cancer cells; test: Western blotting of caspase-3, caspase-8, caspase-9 and PARP; assay type: cell-based; conditions: 10 μg/ml phytosphingosine, FIG. 10
Protocol: (§3) Human lung cancer cells and blood cancer cells were cultured under the same condition as in the apoptosis test and were treated with 10 ml of phytosphingosine (10 μg/ml of phytosphingosine for lung cancer cells, and 5 μg/ml and 10 μg/ml of phytosphingosine for blood cancer cells). Then, the analysis of mitochondrial membrane potential and western blotting was carried out. Phytosphingosine-treated human lung cancer cells and blood cancer cells were dissolved in a protease inhibitor-containing lysis buffer (40 mM Tris-Cl (pH 8.0), 120 mM NaCl, 0.1% […]) and centrifuged to give a protein extract. Pure proteins were isolated from the protein extract using SDS-PAGE and transferred to a nitrocellulose membrane. The protein-bound nitrocellulose membrane was blocked with skim milk and incubated with as caspase-3, caspase-8, caspase-9, and poly(ADP-ribose)polymerase (PARP) as primary antibodies at room temperature for one hour. The primary antibodies-bound nitrocellulose membranes were three times washed with PBS-T (phosphate buffered saline, 0.1% Tween-20) and incubated with HRP (Horse Radish Peroxidase)-conjugated secondary antibodies for one hour. The expression of caspase-3, caspase-8, caspase-9, and PARP was detected using ECL reagent (PerkinElmer Life Science, Inc.).

[3] = test system: caspases in human blood cancer cells; test: as above; assay type: cell-based; conditions: 5 and 10 μg/ml phytosphingosine, FIG. 10
Protocol: as §3

human lung cancer cells [4] = test: Colony formation test in combination with radiation; assay type: cell-based; conditions: FIG. 12
Protocol: Colony formation tests were carried out in human lung cancer cells, breast cancer cells, and uterine cervical cancer cells as follows:
Respective sphingosine, phytosphingosine, C6PS, and C8PS were dissolved ethanol to produce specimens. About 600 cells (for each cancer) were plated in a dish with a diameter of 60 mm and incubated in a CO2 incubator at 37° C. for a day. Then, the cancer cells were treated with the specimens in combination with radiation and were continuously cultured. When suitable colonies were formed, the cancer cells were fixed with a fixing solution (methanol/acetic acid=3:1) and stained with trypan blue. Then, the number of the colonies was counted and the results were evaluated in a comparative manner.

human lung cancer cells [5] = test: Analysis of mitochondrial membrane potential (DioC6(3), flow cytometry) and cytochrome c release; assay type: cell-based; conditions: 10 μg/ml phytosphingosine
Protocol: as §2

CCCCCCCCCCCCCC[C@@H](O)[C@@H](O)[C@@H](N)CO [phytosphingosine]
apoptosis ([1]; 5 μg/ml or more, culture of 6 hours or more, FIG. 6): ≥ 50% | apoptosis ([1]; 5 μg/ml, at 3-6 hours after treatment): ≥ 50% | apoptosis ([1]; 10 μg/ml or more, culture of 3 hours or more, FIG. 6): ≥ 50% | apoptotic rate ([1]; 10 μg/ml phytosphingosine, test (1-1), FIG. 1): ≥ 50% | LD50 (Acute oral toxicity test): ≥ 2000 mg/kg | mutagenicity (Ames test) (Ames test): do not cause mutation | dermal irritation (Dermal irritation test): did not cause dermal damages | mitochondrial membrane potential (human blood cancer cells): decreased | release of cytochrome c from mitochondria (human blood cancer cells): increased | activities of the caspases [2]: considerably increased | activities of the caspases [3]: considerably increased | reduction of tumor growth, concurrent treatment vs radiation, sphingosine or PS alone (human lung cancer cells [4]; PS in combination with radiation): ≥ 30% | sensitizer enhancement ratio (SER) (human lung cancer cells [4]; in combination with radiation): 1.21 | release of cytochrome c from mitochondria (human lung cancer cells [5]; FIGS. 7, 9): increased | mitochondrial membrane potential (human lung cancer cells [5]; FIGS. 7-8): decreased

Reference: patent US20090176888A1, “COMPOSITION COMPRISING PHYTOSPHINGOSINE OR DERIVATIVE THEREOF” (KOREA INSTITUTE OF RADIOLOGICAL & MEDICAL SCIENCES, priority 2003, published 2009)
